Experimental data: patent US20240252668A1, “ANTIBODY DRUG CONJUGATES AND METHODS FOR MAKING THEREOF” (Novartis AG, priority 2021, published 2024)
Like-named read-outs stand apart in the source and are kept apart here. Starred links: 1 amine or outer side, 2 acyl side, 3 side chain; linkers in the order of their positions; H or OH if unused. Positions of bridges follow the written chain, without caps; N, C: chain ends. Non-standard residues stand in square brackets, D forms with d. Residues, ends and D or L forms follow the SMILES beside them. *: point of attachment. Leu(3R-OH,Nα-propionyl) = CCC(=O)N[C@H](C(=O)*)[C@H](O)C(C)C; X1 = CC(C)[C@@H](O[*:3])[C@H](N[*:1])C(=O)[*:2]; NMeT = CN[C@H](C(=O)O)[C@@H](C)O; dPhLac = O=C(O)[C@H](O)Cc1ccccc1; NMeA = CN[C@@H](C)C(=O)O; NMeDha = C=C(NC)C(=O)O

Key:
[1] = Plasma incubation of compound (A1), cynomolgus monkey plasma; type: in vitro ADME
Procedure: (§1) Plasma incubations and sample preparation: Compound (A1) was spiked at 5.00 μg/mL in PBS and pooled mixed gender mouse (CD-1), cynomolgus monkey and human plasma. Samples were incubated on a Thermomixer (Eppendorf) at 37° C. while shaking at 650 rpm. Aliquots of 50 μL (n=3) were drawn from each incubation tube following 0, 0.5, 1, 2, 4, 8 and 24 h of incubation. 50 μL of sample was quenched with 200 μL of acetonitrile, containing both generic internal standards, glybenclamide and warfarin, at 62.5 ng/mL. Samples were briefly vortexed and centrifuged for 20 min at 4000 rpm and 4° C. 200 μL of the supernatant was transferred into a clean 800 μL 96-well sample collection plate.
(§2) Quantification by LC-MS/MS: LC-MS/MS analysis was conducted with a Shimadzu Nexera UPLC coupled to AB Sciex QTRAP 6500 using the SRM acquisition mode (3 μL injected). Samples were analyzed using a ACE 3° C.18-PFP (3 μM, 2.1×50 mm column) at a column temperature of 65° C. […] Quantification of compound (A1) and 5 was performed by MS-MRM (electrospray in positive mode, ion spray voltage: 5000 V, source temperature: 500° C., curtain gas: 25 psig, nebulizer gas: 60 psig, turbo ion spray gas: 40 psig, mass range: low, resolution Q1/Q3: unit, collision gas: medium, dwell time: 12 msec). […] Peak integration and quantification was conducted with the AB Sciex Analyst software (v.1.7) using the Analyst Classic algorithm.

[2] = Plasma incubation of compound (A1), mouse (CD-1) plasma; type: in vitro ADME
Procedure: as §1, §2

[3] = system: 92.1 uveal melanoma cell line (heterozygous GNAQ Q209L); assay: Cell proliferation assay (resazurin cell viability), 92.1 cell line; type: cell-based
How it was run: (§3)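 Cells seeded the night before, then treated 96 h at 37 °C in RPMI/10% FCS (A375 in DMEM/10% FCS); compounds 260 nM to 0.036 nM in ⅓ dilution steps, one compound 10000 nM to 1.52 nM. Viability read by resazurin addition after 96 h.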

[4] = Cell-based transwell assay with MDCK-low efflux monolayers (passive permeability); type: in vitro ADME; conditions: dog; MDCK-LE monolayers
Procedure: (§4) Cell-based transwell assays with MDCK-low efflux monolayers: Compounds (A1) and 2-15 were tested in MDCK cell sub-clones with low effluxt ransporter activity (MDCK-LE) in order to determine their passive permeability. The incubations were performed at a contract research organization as described previously.

[5] = system: MDCK-LE monolayers; assay: as above; type: in vitro ADME; conditions: MDCK-LE monolayers
Procedure: as §4

[6] = EPSA determination by supercritical fluid chromatography; type: physicochemical; conditions: supercritical fluid chromatography, Chirex 3014 column; modified EPSA method, SFC; read-out: EPSA
How it was run: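 SFC on a Chirex 3014 column ([…], 3×100 mm, 100 Å). Gradient runs linearly from 5% to 60% methanol containing 20 mM ammonium formate, in scCO2, over 4.5 min.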

[7] = system: SK-MEL-30 skin melanoma cell line (heterozygous NRAS Q61K); assay: Cell proliferation assay (resazurin cell viability), SK-MEL-30 cell line; type: cell-based; conditions: Homo sapiens
How it was run: as §3

[8] = system: A375 skin melanoma cell line (homozygous BRAF V600E); assay: Cell proliferation assay (resazurin cell viability), A375 cell line; type: cell-based; conditions: Homo sapiens, A-375
How it was run: as §3

[9] = system: Gαq-mutant uveal melanoma xenografts; conditions: systemically administered; cited from earlier work

C=C1C(=O)N[C@@H](C)C(=O)N(C)[C@@H](C)C(=O)N[C@@H]([C@H](OC(=O)[C@@H](NC(=O)CC)[C@H](O)C(C)C)C(C)C)C(=O)N(C)[C@@H]([C@@H](C)OC)C(=O)O[C@H](C(C)C)[C@H](NC(C)=O)C(=O)O[C@H](Cc2ccccc2)C(=O)N1C [Compound (A1), FR900359] (Ac-[X1][dPhLac][NMeDha]A[NMeA][X1](Leu(3R-OH,Nα-propionyl))[NMeT](Me); ester 1-C)
plasma stability / metabolite formation compared with human plasma [1]: Very similar results
plasma stability / metabolite formation compared with human plasma [2]: Very similar results
GI50 ([3]; 92.1 (GNAQ Q209L), 96 hours of treatment, read-out: GI50 by cell line, 92.1): 0.6 nM
GI50 ([3]; 92.1 cell line, average of Rep. 1 and 2, read-out: GI50 92.1 Average): 0.6 nM
GI50 ([3]; 92.1 cell line, replicate 1, read-out: GI50 92.1 Rep. 1): 0.46 nM
GI50 ([3]; 92.1 cell line, replicate 2, read-out: GI50 92.1 Rep. 2): 0.69 nM
Papp A→B [4]: 4.06 ×10⁻⁶ cm/s
recovery [4]: 65%
% Fraction absorbed [5]: 59.7%
EPSA [6]: 94 A^2
GI50 ([7]; SK-MEL-30 (GNAQ/11 wild type), 96 hours of treatment, read-out: GI50 by cell line, SK-MEL-30): > 260 nM
GI50 ([7]; SK-MEL-30 cell line, average of Rep. 1 and 2, read-out: GI50 SK-MEL-30 Average): > 260 nM
GI50 ([7]; SK-MEL-30 cell line, replicate 1, read-out: GI50 SK-MEL-30 Rep. 1): > 260 nM
GI50 ([7]; SK-MEL-30 cell line, replicate 2, read-out: GI50 SK-MEL-30 Rep. 2): > 260 nM
GI50 ([8]; A375 (GNAQ/11 wild type), 96 hours of treatment, read-out: GI50 by cell line, A375): > 260 nM
GI50 ([8]; A375 cell line, average of Rep. 1 and 2, read-out: GI50 A375 Average): > 260 nM
GI50 ([8]; A375 cell line, replicate 1, read-out: GI50 A375 Rep. 1): > 260 nM
GI50 ([8]; A375 cell line, replicate 2, read-out: GI50 A375 Rep. 2): > 260 nM
tolerability of the active doses [9]: well tolerated
